The structures appear in SMILES notation. Structures can show the parent of a compound that is named as a salt.

In this test the target is T1, Carbonic anhydrase [110-330] (Coastal plain yellowtops, UniProt P46510).
T1 construct: 110-330
T1 sequence (P46510 whole entry): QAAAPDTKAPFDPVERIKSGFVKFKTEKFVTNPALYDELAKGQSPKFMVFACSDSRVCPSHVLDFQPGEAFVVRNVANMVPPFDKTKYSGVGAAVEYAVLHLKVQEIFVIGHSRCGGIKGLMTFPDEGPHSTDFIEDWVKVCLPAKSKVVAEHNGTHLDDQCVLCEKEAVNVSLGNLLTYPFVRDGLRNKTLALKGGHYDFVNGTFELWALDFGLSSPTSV
The test is described as follows: Stopped Flow CO2 Hydration Assay. Particulars: pH 8.3; 20 °C. On the procedure: Inhibition constants of carboxylate inhibitors against F. bidentis CA I were determined by a stopped flow CO2 hydration assay at 20 °C.

For the compound `CCCCC(=O)O`, the affinity corresponds to a Ki of 77.5 µM.
On to `CCCC(=O)O`, for which the Ki – broadly, the equilibrium dissociation constant of an inhibitor or competing ligand from its target – was found to be 82.3 µM.
Then `O=CO`, with 97.5 µM; and `CC(O)C(=O)O` (centres undefined), with 74.1 µM.
As for `O=C(O)CC(O)C(=O)O` (centres undefined), the figure is 92.5 µM.
Then `CCC(=O)O`, with 91 µM; and `O=C(O)C(=O)O`, with 93 µM; and `O=C(O)c1c(F)c(F)cc(F)c1F` [2,3,5,6-F4-Benzoate], with 51.2 µM.
`CC(=O)C(=O)O` [Pyruvate]: the Ki is over 10000 µM.
Then `O=C(O)c1ccccc1` [SODIUM BENZOATE], with 64.5 µM; and `O=C(O)CC(O)(CC(=O)O)C(=O)O` [SODIUM CITRATE], with 41.4 µM.
As for `CC(=O)O` [sodium acetate], the figure is 95.1 µM; as for `O=C(O)/C=C\C(=O)O` [sodium maleate], 73.2 µM.
As for `O=C(O)CC(=O)O` [sodium malonate], the figure is 100 µM.

Source of the values: BindingDB's records for doi:10.3109/14756366.2013.813942 (Istituto di Biostrutture e Bioimmagini-CNR, 2014).
